In patent US12384776B2, “Compounds and uses thereof” (Foghorn Therapeutics Inc., priority 2019, dated 2025):
pIC50: −log10 of the molar value.

How the values were obtained:
[1] = system: non-synovial control cancer cell lines (RD, HCT116, and Calu6); assay: Crystal violet growth assay in non-synovial control cancer cell lines, Example 4; assay type: cell-based; conditions: day 14
Method: (§1) Procedure: Cells were seeded into 6-well or 12-well plates and were treated daily with a BRD9 degrader (Compound 1), a bromo-domain BRD9 binder (Compound 2), E3 ligase binder (lenalidomide), DMSO, or staurosporin (positive control for cell killing), at indicated concentrations. The number of cells was optimized for each cell line. Growth media was refreshed every 5 days. By day 14, medium was removed, cells were washed with PBS, and stained using 500 μL of 0.005% (w/v) crystal violet solution in 25% (v/v) methanol for at least 1 hour at room temperature. Subsequently plates were scanned on an Odyssey CLx Imaging system.

[2] = system: synovial sarcoma cell lines (SYO1, Yamato, HS-SY-II, and ASKA); assay: Growth of synovial sarcoma cell lines (IncuCyte confluency, crystal violet, colony imaging), Example 3; assay type: cell-based
Method: (§2) Cells were treated with DMSO or the BRD9 degrader, Compound 1, at indicated concentrations, and proliferation was monitored from day 7 to day 14 by measuring confluency over time using an IncuCyte live cell analysis system (FIG. 5). Growth medium and compounds were refreshed every 3-4 days.
(§3) Cells were seeded into 12-well plates and treated with DMSO, 1 μM BRD9 inhibitor, Compound 2 (also known as BI-7273, see Martin et al, J Med Chem. 59(10):4462-4475 (2016); see structure of compound 2 below), or 1 μM BRD9 degrader, Compound 1.
(§4) The number of cells was optimized for each cell line. Growth medium and compounds were refreshed every 3-5 days. SYO1, Yamato, A549, 293T and HS-SY-II cells were fixed and stained at day 11. ASKA cells were fixed and stained at day 23. Staining was done by incubation with crystal violet solution (0.5 g Crystal Violet, 27 ml 37% Formaldehyde, 100 mL 10×PBS, 10 mL Methanol, 863 dH20 to 1 L) for 30 min followed by 3× washes with water and drying the plates for at least 24 h at room temperature. Subsequently plates were scanned on an Odyssey CLx Imaging system (FIG. 6).
(§5) Cells were seeded into 96-well ultra low cluster plate (Costar, #7007) in 200 μL complete media and treated at day 2 with DMSO, Staurosporin, or BRD9 degarder, Compound 1, at indicated doses (FIG. 3C). Media and compounds were changed every 5 d and cell colonies were imaged at day 14.

[3] = system: non-synovial control cancer cell lines (293T, A549, G401); assay: Growth of non-synovial control cancer cell lines, Example 3; assay type: cell-based
Method: as §2, §3, §4, §5

[4] = system: synovial sarcoma cell lines (SYO1, HS-SY-II, and ASKA); assay: Crystal violet growth assay in synovial sarcoma cell lines, Example 4; assay type: cell-based; conditions: for inhibition of the growth of the cells: synovial sarcoma cell lines SYO1, HS-SY-II, ASKA, day 14
Method: as §1

SYO1 cells [5] = assay: Apoptosis assay (Annexin V-FITC Apoptosis Detection Kit); assay type: cell-based; conditions: 200 nM or 1 μM, 8 days, as compared to DMSO controls
Method: (§6) Procedure: SYO1 cells were treated for 8 or 13 days with DMSO, a BRD9 degrader (Compound 1) at 200 nM or 1 μM, or an E3 ligase binder (lenalidomide) at 200 nM. Compounds were refreshed every 5 days. Cell cycle analysis was performed using the Click-iT™ Plus EdU Flow Cytometry Assay (Invitrogen). The apoptosis assay was performed using the Annexin V-FITC Apoptosis Detection Kit (Sigma A9210). Assays were performed according to the manufacturer's protocol.

SYO1 cells [6] = assay: Cell cycle analysis (Click-iT Plus EdU Flow Cytometry Assay); assay type: cell-based; conditions: 200 nM or 1 μM, 8 or 13 days, as compared to DMSO and lenalidomide
Method: as §6

[7] = molecular target: Nanoluciferase-BRD9 fusion protein (3×FLAG-NLuc-BRD9) in SYO-1 cells (Homo sapiens (Human), UniProt Q9H8M2); assay: SYO1 BRD9 NanoLuc degradation assay; assay type: cell-based; conditions: SYO-1 cells, 6 hours, Table 6A
Sequence of Nanoluciferase-BRD9 fusion protein (3×FLAG-NLuc-BRD9) in SYO-1 cells (Q9H8M2 whole entry, the tested form may be a part): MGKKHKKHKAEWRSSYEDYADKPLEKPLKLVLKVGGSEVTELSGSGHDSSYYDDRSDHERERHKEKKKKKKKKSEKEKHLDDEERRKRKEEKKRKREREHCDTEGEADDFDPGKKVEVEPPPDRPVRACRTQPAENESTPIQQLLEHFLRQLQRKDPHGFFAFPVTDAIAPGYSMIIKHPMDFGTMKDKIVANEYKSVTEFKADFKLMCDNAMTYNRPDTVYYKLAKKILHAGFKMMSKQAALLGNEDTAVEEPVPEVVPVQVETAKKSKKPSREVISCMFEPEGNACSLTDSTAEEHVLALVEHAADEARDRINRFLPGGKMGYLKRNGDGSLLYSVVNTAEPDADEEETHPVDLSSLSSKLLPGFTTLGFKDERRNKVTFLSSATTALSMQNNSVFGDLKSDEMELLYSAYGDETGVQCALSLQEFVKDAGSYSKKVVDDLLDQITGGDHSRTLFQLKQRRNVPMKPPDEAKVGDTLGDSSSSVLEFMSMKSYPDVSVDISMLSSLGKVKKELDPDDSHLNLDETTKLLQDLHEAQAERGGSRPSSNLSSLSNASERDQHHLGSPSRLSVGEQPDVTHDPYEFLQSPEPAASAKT
Method in brief: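 Stable SYO-1 line expressing 3×FLAG-NLuc-BRD9, treated with 10-point 3-fold dilutions (top 1 μM final) for 6 hours. Nanoluciferase luminescence read with Nano-Glo reagent. % inhibition relative to DMSO (high control) and 1 μM reference BRD9 degrader (low control).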

BRD9 bromodomain = BRD9 bromodomain (Homo sapiens (Human), UniProt Q9H8M2); assay: BRD9 bromodomain TR-FRET competition binding assay
Sequence of BRD9 bromodomain (Q9H8M2 133-239): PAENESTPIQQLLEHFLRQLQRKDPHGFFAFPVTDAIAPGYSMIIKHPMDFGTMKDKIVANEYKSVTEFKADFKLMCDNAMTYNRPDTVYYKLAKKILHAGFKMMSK

| pIC50 [7] | pIC50 (BRD9 bromodomain) | SMILES | inhibition of the growth of the cells [1] | inhibition of the growth of the cells [2] | inhibition of the growth of the cells [3] | inhibition of the growth of the cells [4] | numbers of early- and late-apoptotic cells (SYO1 cells [5]) | numbers of cells in the S-phase of the cell cycle (SYO1 cells [6]) | growth inhibition compared with the other treatments ([4]; all synovial cell lines) |
| --- | --- | --- | --- | --- | --- | --- | --- | --- | --- |
|  |  | COc1cc(-c2cn(C)c(=O)c3cnccc23)cc(OC)c1CN(C)C [Compound 2] | did not result in inhibition of the growth | inhibition of the growth of the cells | does not result in inhibition of the growth | inhibition of the growth of the cells |  |  |  |
|  |  | COc1cc(-c2cn(C)c(=O)c3cnccc23)cc(OC)c1CN(C)CC(=O)NCCOCCOCCNc1cccc2c1C(=O)N(C1CCC(=O)NC1=O)C2=O (stereo not drawn) [Compound 1] | did not result in inhibition of the growth | inhibition of the growth of the cells | does not result in inhibition of the growth | inhibition of the growth of the cells | increased numbers of early- and late-apoptotic cells | reduced numbers of cells in the S-phase | most significant growth inhibition |
| > 8.00 | > 8.00 | CNC(=O)N1CCc2c(-c3cc(OC)c(CN4CCC(CCN5CCN(c6ccc7c(c6)C(=O)N(C6CCC(=O)NC6=O)C7=O)CC5)CC4)c(OC)c3)cn(C)c(=O)c2C1 (stereo not drawn) [Compound D28, 5-(4-[[4-(2-[4-[2-(2,6-dioxopiperidin-3-yl)-1,3-dioxoisoindol-5-yl]piperazin-1-yl]ethyl)piperidin-1-yl]methyl]-3,5-dimethoxyphenyl)-N,7-dimethyl-8-oxo-3,4-dihydro-1H-2,7-naphthyridine-2-carboxamide formic acid] |  |  |  |  |  |  |  |
| < 7.00 | < 8.00 | CNC(=O)N1CCc2c(-c3cc(OC)c(CN4CC(NC(=O)CCCCCOc5cccc6c5C(=O)N(C5CCC(=O)NC5=O)C6=O)C4)cc3OC)cn(C)c(=O)c2C1 (stereo not drawn) [Compound D15, 5-(4-[[3-(6-[[2-(2,6-Dioxopiperidin-3-yl)-1,3-dioxoisoindol-4-yl]oxy]hexanamido)azetidin-1-yl]methyl]-2,5-dimethoxyphenyl)-N,7-dimethyl-8-oxo-3,4-dihydro-1H-2,7-naphthyridine-2-carboxamide formic acid] |  |  |  |  |  |  |  |
